Source: publication PMC8397418, “Novel Bis-Thiazole Derivatives: Synthesis and Potential Cytotoxic Activity Through Apoptosis With Molecular Docking Approaches” (Frontiers in Chemistry, 2021)
“Also recorded” adds a separate entry of the source. Like-named read-outs stand apart in the source and are kept apart here.

How the values were obtained:
[1] = tested on: MDA-MB-231 breast cancer cells; assay: MTT cytotoxicity assay, MDA-MB-231; format: cell-based; settings: Homo sapiens, read-out: IC50 MDA-MB-231 (Breast)
Protocol: (§1) The synthesized derivatives were screened for their cytotoxic activities against five cancer cell lines (two breast cancer cell lines: MCF-7 and MDA-MB-231, two ovarian cancer cell lines: A2780 and KF-28, and one cervical cancer cell line: Hela). This study was performed using serial concentrations of 25, 50, 100, 150, and 200 µM of each compound using the MTT assay. Percentages of cell viability of the tested compounds with serial concentration against the tested panel of cell lines are depicted in Figure 1, in which there is a decrease in the cell viability with increasing concentrations in a dose–response pattern. […] Therefore, compounds 5a, 5b, and 5f were thought worthwhile to further investigate their effects as either cytotoxic or antiproliferative effects and whether any of them is an inducer of apoptotic cell death in the representative cancer cell lines KF-28 and A2780.
(§2) The human ovarian serous carcinoma cell line KF-28 was kindly provided by Prof. Yoshihiro Kikuchi (Department of Obstetrics and Gynecology, National Defense Medical College, Saitama, Japan), and A2780 cell line was purchased from the ECACC (ECACC 93112519). The cells were maintained in RPMI-1640 (Sigma-Aldrich, United States). The cervical cancer cell line, Hela cells, breast cancer cell line, MCF-7, and MDA-MB-231 were purchased from the ATCC and cultured in DMEM. Both types of media were supplemented with 2 mM L-glutamine (Lonza, Belgium), 10% FBS (Sigma, St. Louis, MO, United States), and 1% penicillin/streptomycin (Lonza, Belgium). All cells were incubated at 37°C in 5% CO2 atmosphere (NuAire). All cancer cell lines were cultured according to the routine tissue culture work as discussed by the Freshney group ([Freshney, 2010]). The cells were plated at a density of 5,000 cells in triplicates in a 96-well plate. On the next day, the cells were treated with the indicated compound(s) at the indicated concentrations in a final volume of 100 μL media. Cell viability was assessed after 72 h using MTT solution (Promega) ([Mosmann, 1983]). 20 μL of the reagent was added to each well, the plate was incubated for 3 h, […] was subsequently measured (570 nm) using a plate reader, and then the IC50 values were calculated using Excel ([Tantawy et al., 2020]).

C-myc in KF-28 cells = assay: Western blot of C-myc expression; format: cell-based, human; settings: two days, vs DMSO
From the text: Pim-1 has been classified as a weak oncogene. However, a very strong synergism with regard to tumorigenicity occurs between Pim-1 and C-myc. This synergism is observed with bitransgenic mice overexpressing C-myc and Pim-1 in lymphoid tissue ([Möröy et al., 1991]). To further validate the simulation and docking data which introduced Pim-1 kinase as a potential target molecule for some of the tested compounds, we decided to check the effect of treatment with the selected compounds on the C-myc protein expression as a downstream target molecule known to be phosphorylated and stabilized by Pim-1 as a kinase ([Zhang et al., 2008]). […] Taking into consideration the fact that Pim-1 phosphorylates C-myc and controls its stability ([Zhang et al., 2008]) may conclude that the reduction of C-myc expression under the indicated compounds is due to the inhibition of Pim-1 activity (Figure 3). Therefore, the speculated inhibition of Pim-1 is supported by the above-mentioned qPCR data (Figure 3) and further supported by C-myc downregulation. Our results agree with the reported one which states that some thiazole derivatives are potent inhibitors against protein kinases including Pim-1 kinase ([Mohareb et al., 2019]).
Cell lysates were prepared by lysing cells in RIPA buffer (10 mM Tris (pH 7.4), 150 mM NaCl, 1% Triton X-100, 1% Na deoxycholate), supplemented with protease inhibitor cocktail (Sigma). Protein concentration of whole cell lysates was determined by the […] using the BSA kit (Pierce), and then equal protein amounts were heated to 95 °C for 5 min with sodium dodecyl sulfate (SDS) sample buffer (25 ml glycerol, 31.2 ml Tris buffer, 7.5 ml SDS, a dash of bromophenol blue/100 ml) and run on 15% SDS polyacrylamide gel electrophoresis (SDS-PAGE). Protein samples were then blotted onto PVDF membranes (Immobilon P, Watford, United Kingdom). The membranes were incubated in blocking solution (5% non-fat milk in PBS) for 1 h and then in primary antibody (anti-human C-myc pAb (Abcam; at dilution of 2:1,000) or GAPDH mAb (Santa Cruz; at dilution of 20:1,000)) overnight. After 3 × 10 min washes in TBS (0.1% Tween-20 in PBS), the membrane was incubated for 1 h at room temperature with horseradish-peroxidase–linked (HRP) secondary anti-rabbit or anti-mouse Ab (1:1,000 dilution in PBS). Signals on the membrane were developed using ECL reagent (Amersham, CA, United States) and then were imaged with the Chemidoc system (Bio-Rad, United States).

[2] = tested on: MEF normal mouse embryonic fibroblast; assay: MTT cytotoxicity assay, MEF; format: cell-based; settings: n = 3
[3] = tested on: Hela cervical cancer cells; assay: MTT cytotoxicity assay, Hela; format: cell-based; settings: Homo sapiens, 72 h
Protocol: as §1, §2

[4] = tested on: A2780 ovarian cancer cells; assay: MTT cytotoxicity assay, A2780; format: cell-based, human; settings: read-out: IC50 A2780 (Ovarian)
Protocol: as §1, §2

[5] = tested on: MCF-7 breast cancer cells; assay: MTT cytotoxicity assay, MCF-7; format: cell-based, human; settings: read-out: IC50 MCF-7 (Breast)
Protocol: as §1, §2

[6] = tested on: KF-28 ovarian cancer cells; assay: MTT cytotoxicity assay, KF-28; format: cell-based, human; settings: 72 h, read-out: IC50 KF-28 (Ovarian)
Protocol: as §1, §2

KF-28 cells [7] = assay: Annexin V-FITC/PI apoptosis assessment; format: cell-based, human; settings: 48 h, cisplatin 10 μM, DMSO control 0.45%
Protocol: Therefore, we decided to use such technique to investigate if the cytotoxic effect of the compounds indicated by MTT and the cell cycle experiments is apoptotic cell death or not. For that purpose, two cell lines, KF-28 and A2780, were stained by annexin V/PI after treatment with different compounds vs. DMSO for two days in parallel with cisplatin as a reference drug. Results from annexin staining analysis show appreciated annexin V–stained populations when cells are treated with compounds 5a–c, 5f, and 9. […] Similar results were obtained from the other cell line, A2780, treated with the same compounds (Figure 2B).
(§3) The cells were seeded into six-well culture plates (3–5 × 10^5 cells/well) and incubated overnight at 37°C, under 5% CO2. The cells were then treated with indicated compounds for 48 h. Next, media supernatants and the cells were collected and washed with ice-cold PBS. Next, the cells were stained with PI (10 mg/ml) for 30 min and analyzed for DNA contents using flow cytometry analysis using an FL2 (λex/em 535/617 nm) signal detector (ACEA Novocyte™ flow cytometer, ACEA Biosciences, Inc., San Diego, CA, United States). For each sample, 12,000 events are acquired. Cell cycle distribution is calculated using a CytoFLex machine and analyzed by CytExpert software. Flow cytometric methodologies (annexin V/PI staining with cell cycle analyses) are carried out as previously described ([Nafie et al., 2020a]; [Nafie et al., 2020b]; [Gad et al., 2020]).

KF-28 cells [8] = assay: DNA content and cell cycle analysis (PI, flow cytometry); format: cell-based, human; settings: 200 µM, 48 h
Protocol: Studying the cell cycle phases by measuring DNA content is a crucial test that helps in evaluating the impact of a given drug(s) on dividing cells and may reflect the mechanism through which this drug(s) affects those cells. […] Compounds 5a, 5b, 5c, 5f, 5g, and 9 were added to similar numbers of cells at 200 µM for 48 h, and then, the different cell cycle phases were assessed by flow cytometric analysis.
as §3

[9] = MTT, n = 3, read-out: IC50 Hela (Cervical)
[10] = Homo sapiens, A2780, MTT, 72 h, n = 3
[11] = Homo sapiens, MCF7, MTT, 72 h, n = 3

## Cc1[nH]c(=NN=C2CCC(=NN=c3[nH]c(C)c(N=Nc4ccc(Cl)cc4)s3)CC2)sc1N=Nc1ccc(Cl)cc1 [5c, 1,4-Bis((5-(4-chlorophenylazo)-4-methylthiazol-2-ylidene)hydrazono)cyclohexane]
[1]; MDA-MB-231, MTT, 72 h, n = 3
  IC50: 116 µM
C-myc in KF-28 cells
  C-myc protein expression (Western blot): observable downregulation; also recorded: Appreciated downregulation
[2]
  IC50: > 200 µM
[3]; [9]
  IC50: < 25 µM

## Cc1[nH]c(=NN=C2CCC(=NN=c3[nH]c(C)c(N=Nc4ccc([N+](=O)[O-])cc4)s3)CC2)sc1N=Nc1ccc([N+](=O)[O-])cc1 [5d, 1,4-Bis((5-(4-nitrophenylazo)-4-methylthiazol-2-ylidene)hydrazono)cyclohexane]
[1]; MDA-MB-231, 72 h
  IC50: > 200 µM
[4]; Homo sapiens, A2780, 72 h
  IC50: > 200 µM
[5]; Homo sapiens, MCF7, 72 h
  IC50: > 200 µM
[3]; read-out: IC50 Hela (Cervical)
  IC50: > 200 µM
[6]; Homo sapiens
  IC50: > 200 µM
other
  melting point: > 300 °C

## Cc1ccccc1N=Nc1sc(=NN=C2CCC(=NN=c3[nH]c(C)c(N=Nc4ccccc4C)s3)CC2)[nH]c1C [5e, 1,4-Bis((5-(2-tolylazo)-4-methylthiazol-2-ylidene)hydrazono)cyclohexane]
[1]; MDA-MB-231, MTT, 72 h, n = 3
  IC50: > 200 µM
[4]; [10]
  IC50: 70.6 µM
[5]; [11]
  IC50: < 25 µM
[3]; [9]
  IC50: > 200 µM
[6]; Homo sapiens, MTT, n = 3
  IC50: > 200 µM

## c1ccc2sc(-c3csc(=NN=C4CCC(=NN=c5[nH]c(-c6nc7ccccc7s6)cs5)CC4)[nH]3)nc2c1 [13a, 1,4-Bis((4-(2-benzothiazolyl)thiazol-2-ylidene)hydrazono)cyclohexane]
[1]; MDA-MB-231, MTT, 72 h, n = 3
  IC50: > 200 µM
[4]; [10]
  IC50: 27.2 µM
[5]; [11]
  IC50: > 200 µM
[3]; [9]
  IC50: > 200 µM
[6]; Homo sapiens, MTT, n = 3
  IC50: > 200 µM
other
  melting point: > 300 °C

## c1ccc2oc(-c3csc(=NN=C4CCC(=NN=c5[nH]c(-c6cc7ccccc7o6)cs5)CC4)[nH]3)cc2c1 [13b, 1,4-Bis((4-(2-benzofuryl)thiazol-2-ylidene)hydrazono)cyclohexane]
other
  melting point: 269 to 270 °C

## O=c1oc2ccccc2cc1-c1csc(=NN=C2CCC(=NN=c3[nH]c(-c4cc5ccccc5oc4=O)cs3)CC2)[nH]1 [13c, 1,4-Bis((4-(3-coumarinyl)thiazol-2-ylidene)hydrazono)cyclohexane]
[4]; [10]
  IC50: 33.5 µM
[5]; [11]
  IC50: 178 µM
[3]; [9]
  IC50: > 200 µM
[6]; Homo sapiens, MTT, n = 3
  IC50: 85.7 µM
other
  melting point: 241 to 242 °C

## Clc1ccc(-c2csc(=NN=C3CCC(=NN=c4[nH]c(-c5ccc(Cl)cc5)cs4)CC3)[nH]2)cc1 [13d, 1,4-Bis((4-(4-chlorophenyl)thiazol-2-ylidene)hydrazono)cyclohexane]
[5]; [11]
  IC50: > 200 µM
[3]; [9]
  IC50: > 200 µM
other
  melting point: 230 to 231 °C

## O=C1NC(=NN=C2CCC(=NN=C3NC(=O)C(=Cc4ccccc4)S3)CC2)SC1=Cc1ccccc1 [14a, 1,4-Bis((5-benzylidene-4-oxo-thiazolidin-2-ylidene)hydrazono)cyclohexane]
other
  melting point: > 300 °C

## Cc1ccc(C=C2SC(=NN=C3CCC(=NN=C4NC(=O)C(=Cc5ccc(C)cc5)S4)CC3)NC2=O)cc1 [14b, 1,4-Bis((5-(4-methylbenzylidene)-4-oxo-thiazolidin-2-ylidene)hydrazono)cyclohexane]
other
  melting point: 269 to 270 °C

## O=C1NC(=NN=C2CCC(=NN=C3NC(=O)C(=Cc4ccc(Cl)cc4)S3)CC2)SC1=Cc1ccc(Cl)cc1 [14c, 1,4-Bis((5-(4-chlorobenzylidene)-4-oxo-thiazolidin-2-ylidene)hydrazono)cyclohexane]
other
  melting point: > 300 °C

## O=C1NC(=NN=C2CCC(=NN=C3NC(=O)C(=Cc4ccc(Br)cc4)S3)CC2)SC1=Cc1ccc(Br)cc1 [14d, 1,4-Bis((5-(4-bromobenzylidene)-4-oxo-thiazolidin-2-ylidene)hydrazono)cyclohexane]
other
  melting point: 290 to 291 °C

## N.N.[Cl][Pt][Cl] [Cisplatin, cisplatin, reference compound]
KF-28 cells [7]
  Total apoptotic cell death (annexin V-positive cells): 25%
[4]; MTT, 72 h, n = 3
  IC50: 1.56 µM
[5]; MTT, 72 h, n = 3
  IC50: 1.21 µM
[6]; MTT, n = 3
  IC50: 9.29 µM

## O=C1CSC(=NN=C2CCC(=NN=C3NC(=O)CS3)CC2)N1 [compound 9, 1,4-Bis((4-oxo-thiazolidin-2-ylidene)hydrazono)cyclohexane]
[1]; MDA-MB-231, MTT, 72 h, n = 3
  IC50: > 200 µM
KF-28 cells [7]
  Total apoptotic cell death (annexin V-positive cells): did not induce appreciated apoptosis
KF-28 cells [8]
  Cell cycle phase S population: 6.5%
KF-28 cells [8]; DMSO control 72%
  Cell cycle phase G1 population: 78%
[4]; [10]
  IC50: 103 µM
[5]; [11]
  IC50: > 200 µM
[2]
  IC50: 1.06 µM
[3]; [9]
  IC50: 111 µM
[6]; Homo sapiens, MTT, n = 3
  IC50: 86.5 µM

## CC(=O)c1sc(=NN=C2CCC(=NN=c3[nH]c(C)c(C(C)=O)s3)CC2)[nH]c1C [compound 11, 1,4-Bis((5-acetyl-4-methylthiazol-2-ylidene)hydrazono)cyclohexane]
other
  melting point: 280 to 281 °C
